Patent publication US6753425B2, “Photographic processing composition containing bistriazinyl arylenediamine derivative” (Fuji Photo Film Co., Ltd., priority 2000, dated 2004)
Where two headings read alike, the source gives them in different places.

Experiments:
[1] = Solubility at the preparation of the additive composition for a fixing solution; type: physicochemical; conditions: Example 5 additive composition, dissolution aid none
[2] = Stability against deposition of precipitates (visual judgement of the stored processing composition); type: physicochemical; design: key: the level of conspicuous precipitation was xx; the level of apparent precipitation was x; the level of slight precipitation was Δ; the level of no precipitation but clouding was ◯; the level of complete transparency with neither clouding nor precipitation was ◯◯
[3] = Example 1 concentrated color developing composition, 15 mmol added, glass bottle, 4 weeks at room temperature
[4] = Example 1 concentrated color developing composition, 15 mmol added, glass bottle, 4 weeks at −5° C.
[5] = Example 2 color developing composition with increased developing agent, 25 mmol added, 4 weeks at room temperature
[6] = Example 2 color developing composition with increased developing agent, 25 mmol added, 4 weeks at −5° C.
[7] = Example 3 fixing composition, 5 mmol added, 4 weeks at room temperature
[8] = Example 3 fixing composition, 5 mmol added, 4 weeks at −5° C.
[9] = Example 4 color developing composition for color negative film, 15 mmol added, 4 weeks at room temperature
[10] = Example 4 color developing composition for color negative film, 15 mmol added, 4 weeks at −5° C.
[11] = Example 5 additive composition, compound 70 mmol, dissolution aid none, −5° C.

Row | Compound | Solubility at the Preparation of Solution ([1]; compound 70 mmol) | Evaluation of Deposition (room temperature) [2, 3] | Evaluation of Deposition (−5° C.) [2, 4] | Evaluation of Deposition (room temperature) [2, 5] | Evaluation of Deposition (−5° C.) [2, 6] | Evaluation of Deposition (room temperature) [2, 7] | Evaluation of Deposition (−5° C.) [2, 8] | Evaluation of Deposition (room temperature) [2, 9] | Evaluation of Deposition (−5° C.) [2, 10] | Evaluation of Deposition (−5° C.) [2, 11] | Solubility at the Preparation of Solution ([1]; compound 140 mmol) | Evaluation of Deposition (−5° C.) ([2]; Example 5 additive composition, compound 140 mmol, dissolution aid none, −5° C.) | Evaluation of Deposition (room temperature) [2] | Evaluation of Deposition (−5° C.) [2]
1 | O=S(=O)([O-])CCNc1nc(NCC(O)CO)nc(Nc2ccc(Nc3nc(NCCS(=O)(=O)[O-])nc(NCC(O)CO)n3)cc2)n1.[Na+].[Na+] (centres unmarked) [Compound A-2] | Completely | ◯◯ | ◯◯ | ◯◯ | ◯◯ | ◯◯ | ◯◯ | ◯◯ | ◯◯ | ◯◯ | – | – | – | –
2 | O=S(=O)([O-])CCNc1nc(NCC(O)CO)nc(Nc2cccc(Nc3nc(NCCS(=O)(=O)[O-])nc(NCC(O)CO)n3)c2)n1.[Na+].[Na+] (centres unmarked) [Compound A-3] | Completely | ◯◯ | ◯◯ | ◯◯ | ◯◯ | ◯◯ | ◯◯ | ◯◯ | ◯◯ | ◯◯ | Completely | ◯◯ | – | –
3 | COc1cc(Nc2nc(NCCS(=O)(=O)[O-])nc(NCC(O)CO)n2)c(OC)cc1Nc1nc(NCCS(=O)(=O)[O-])nc(NCC(O)CO)n1.[Na+].[Na+] (centres unmarked) [Compound A-7] | – | – | – | – | – | – | – | – | – | – | – | – | ◯◯ | ◯
4 | CC(CO)Nc1nc(NCC(O)CO)nc(Nc2cc(Nc3nc(NCC(O)CO)nc(NC(C)CO)n3)cc(S(=O)(=O)[O-])c2)n1.[Na+] (centres unmarked) [Compound A-23] | – | – | – | – | – | – | – | – | – | – | – | – | ◯◯ | ◯◯ and ◯
